The series can be described thus: Pro-Fragrant Hydrolysis Test (hydrolysis half-life t-1/2 by UV/Vis). It is filed as physicochemical. The conditions noted are these: pH 0; 90/10 dioxane/water, 30° C. The protocol:
Hydrolysis half-life is the measurement used to determine the ease with which the pro-fragrance compound undergoes acid hydrolysis and thereby releases its fragrance component(s) upon exposure to acid conditions. […] Preferably, pro-fragrances of the invention have a half-life at pH 2 of less than 60 minutes. For granular detergents, the more reactive pro-fragrances, that is, those with half-life at pH 2 of less than one minute, are most suitable, although those having a half-life of less than 60 minutes at pH 0 are also useful. For liquid detergent applications, pro-fragrances having a half-life of less than 60 minutes at pH 0, and half-life greater than one minute at pH 2 should preferably be used.
Hydrolysis half-life is determined by UV/V is spectroscopy in a 90/10 dioxane/water system at 30° C. by following the appearance of the carbonyl absorbance. Because of the hydrophobicity of the pro-fragrance compounds of the invention, a high dioxane/water ratio is needed to ensure solubility of the pro-fragrance. The pH of the water used is achieved by using aqueous HCl. The concentration of the pro-fragrance in the dioxane/water system can be adjusted to achieve convenient, measurable absorbance changes.
All measurements are carried out using a Hewlett Packard 8452 A Diode Array Spectrophotometer using quartz 1 cm path length cuvette cells. […] The pH's are measured using an Orion 230 A standardized with pH 4 and pH 7 buffers. […]
Pro-fragrance is weighed out in a 10.00 ml volumetric flask using an analytical balance (Mettler AE 200) Precision is 1/10 mg. […] Hydrolysis time is measured, starting upon addition of the acid. […] The absorbance of the pro-fragrance solution (At) is followed at a regular series of time intervals, and the cuvette is kept in the water-bath at the above-indicated temperature between measurements. Initial absorbance (Ao) measurements are carried out using an equal concentration of pro-fragrance in a 90/10 v/v dioxane-deionized water solution, and final absorbance (Af) measurements are taken using the hydrolyzed pro-fragrance solution after the hydrolysis is complete. The wavelength at which the hydrolysis is followed is chosen at the wavelength of the absorbance maximum of the parent aldehyde or ketone.
Reaction half-lifes are determined using conventional procedures. The observed first-order rate constant (kobs) is determined by slope of the line provided by plotting the following finction vs time (min):
wherein said function is the natural log of the ratio between the absorbance difference at initial time (Ao) and final time (Af) over the absorbance difference at time t (At) and final time (Af). […]

SMILES strings stand for the structures.

On to `CCCCCCCCCCOC(OCCCCCCCCCC)c1ccc(OC)cc1` [Example 1, Didecyl Anisaldehyde Acetal], for which the “t1/2 (hydrolysis half-life)” value is on record as “less than 1 minutes”.

Regarding `CC(C)=CCCC(C)=CC(OC/C=C(\C)CCC=C(C)C)OC/C=C(\C)CCC=C(C)C` [Example 2, Digeranyl Citral Acetal], the “t1/2 (hydrolysis half-life)” value is recorded as “less than one”. For `CCCCCCCCCCOC(C)(CCc1ccccc1)OCCCCCCCCCC` [Example 3, Didecyl Benzyl Acetone Ketal], the “t1/2 (hydrolysis half-life)” value is “less than one”. For `CCCCCCCCCC(OC/C=C(\C)CCC=C(C)C)OC/C=C(\C)CCC=C(C)C` [Example 4, Digeranyl Decanal Acetal] the value was 44 min.

Source of the values: US6239087A, “Detergent compositions containing fragrance precursors and the fragrance precursors themselves” (The Procter & Gamble Company, priority 1998, dated 2001).
